Patent US10703764B2, “Benzopiperazine compositions as BET bromodomain inhibitors” (FORMA Therapeutics, Inc., priority 2013, dated 2020)
Like-named read-outs stand apart in the source and are kept apart here.

Tests used:
BRD4 BD2 = molecular target: T1, BRD4 BD2 (Homo sapiens, UniProt O60885); assay: AlphaScreen binding assay, BRD4 Bromodomain 2
T1 construct: made in house
Summary of the method: (§1)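 An AlphaScreen competition format was used with His-BRD4 BD1 or BD2 and biotin-H4 K5/8/12/16-acetyl peptide, each at matched final levels of 50 nM (BD1) or 100 nM (BD2). Incubation in HEPES/NaCl buffer with 0.1% BSA and 0.01% Triton X-100 ran ≥1 h before IC50 determination.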

MV4-11 cells = assay: Oncology cell growth assay (3-day proliferation, CellTiter-Glo); format: cell-based; settings: Homo sapiens, AML cell line MV4-11, 72 hours, compounds grouped by IC50 range, read-out: MV4-11 IC50 (inhibition of proliferation, gIC50)
Summary of the method: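 MV4-11 AML cells (RPMI 1640, 10% FBS) plated at 3000 cells/well and exposed 72 h to compound at final 10 to 0.0045 μM (3-fold series). Viability read by CellTiter-Glo luminescence; gIC50 from four-parameter logistic fit between DMSO control and no-cell background.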

BRD4 BD1 = molecular target: T2, BRD4 BD1 (Homo sapiens, UniProt O60885); assay: AlphaScreen binding assay, BRD4 Bromodomain 1
T2 construct: made in house
Summary of the method: as §1

IC50 (BRD4 BD2) [nM]	IC50 (BRD4 BD1) [nM]	IC50 (MV4-11 cells; MV4-11, 72 h) [nM]	Structure (SMILES)	IC50 (MV4-11 cells) [nM]
> 500	100 to 1000	> 500	CC(=O)N1c2cc([N+](=O)[O-])c(-c3cnn(C4CC4)c3)cc2N(C(=O)OC(C)C)C[C@@H]1C [Example I-195, isopropyl (S)-4-acetyl-7-(1-cyclopropyl-1H-pyrazol-4-yl)-3-methyl-6-nitro-3,4-dihydroquinoxaline-1(2H)-carboxylate]	
> 500	1000 to 10000	> 500	COc1cc2c(cc1-c1ccc(S(C)(=O)=O)cc1)N(C(=O)OC(C)C)C[C@H](C)N2C(C)=O [Example I-199, Isopropyl (S)-4-acetyl-6-methoxy-3-methyl-7-(4-(methylsulfonyl)phenyl)-3,4-dihydroquinoxaline-1(2H)-carboxylate]	
50 to 500	1000 to 10000	> 500	CC(=O)Nc1ccc2c(c1)N(C(C)=O)[C@@H](C)CN2C(=O)OC(C)C [Example I-200, Isopropyl (S)-6-acetamido-4-acetyl-3-methyl-3,4-dihydroquinoxaline-1(2H)-carboxylate]	
> 500	> 10000	> 500	CC(=O)N1c2cc(NS(C)(=O)=O)ccc2N(C(=O)OC(C)C)C[C@@H]1C [Example I-201, Isopropyl (S)-4-acetyl-3-methyl-6-(methylsulfonamido)-3,4-dihydro quinoxaline-1(2H)-carboxylate]	
50 to 500	100 to 1000	> 500	CC(=O)N1c2cc(F)c(-c3cnn(C4CC4)c3)cc2N(C(=O)OC(C)C)C[C@@H]1C [Example I-207, Isopropyl (S)-4-acetyl-7-(1-cyclopropyl-1H-pyrazol-4-yl)-6-fluoro-3-methyl-3,4-dihydroquinoxaline-1(2H)-carboxylate]	
> 500	1000 to 10000	> 500	CC(=O)N1c2cc(Cl)c(-c3cnn(C4CC4)c3)cc2N(C(=O)OC(C)C)C[C@@H]1C [Example I-208, Isopropyl (S)-4-acetyl-6-chloro-7-(1-cyclopropyl-1H-pyrazol-4-yl)-3-methyl-3,4-dihydroquinoxaline-1 (2H)-carboxylate]	
> 500	> 10000	> 500	CC(=O)N1c2cc(NS(C)(=O)=O)c(-c3cnn(C4CC4)c3)cc2N(C(=O)OC(C)C)C[C@@H]1C [Example I-213, Isopropyl (S)-4-acetyl-7-(1-cyclopropyl-1H-pyrazol-4-yl)-3-methyl-6-(methylsulfonamido)-3,4-dihydroquinoxaline-1(2H)-carboxylate]	
> 500	1000 to 10000	> 500	CC(=O)N1c2cc(Br)c(-c3ccc(S(C)(=O)=O)cc3)cc2N(C(=O)OC(C)C)C[C@@H]1C [Example I-217, Isopropyl (S)-4-acetyl-6-bromo-3-methyl-7-(4-(methylsulfonyl)phenyl)-3,4-dihydroquinoxaline-1(2H)-carboxylate]	

Further lines, the compound ahead of its results:

Structure (SMILES)	IC50 (BRD4 BD2) [nM]	IC50 (BRD4 BD1) [nM]	IC50 (MV4-11 cells; MV4-11, 72 h) [nM]	IC50 (MV4-11 cells) [nM]
CNC(=O)N1c2ncc(-c3cnn(C4CC4)c3)cc2N(C(=O)OC(C)C)C[C@@H]1C [Example I-194, (S)-isopropyl 7-(1-cyclopropyl-1H-pyrazol-4-yl)-3-methyl-4-(methylcarbamoyl)-3,4-dihydropyrido[2,3-b]pyrazine-1(2H)-carboxylate]	50 to 500	1000 to 10000		> 500
CC(=O)N1c2cc(F)c(-c3ccc(S(C)(=O)=O)cc3)cc2N(C(=O)OC(C)C)C[C@@H]1C [Example I-196, Isopropyl (S)-4-acetyl-6-fluoro-3-methyl-7-(4-(methylsulfonyl)phenyl)-3,4-dihydroquinoxaline-1(2H)-carboxylate]	> 500	1000 to 10000	> 500	
CC(=O)Nc1cc2c(cc1-c1ccc(S(C)(=O)=O)cc1)N(C(=O)OC(C)C)C[C@H](C)N2C(C)=O [Example I-197, Isopropyl (S)-6-acetamido-4-acetyl-3-methyl-7-(4-(methylsulfonyl)phenyl)-3,4-dihydroquinoxaline-1(2H)-carboxylate]	> 500	1000 to 10000	> 500	
COC(=O)Nc1cc2c(cc1-c1ccc(S(C)(=O)=O)cc1)N(C(=O)OC(C)C)C[C@H](C)N2C(C)=O [Example I-198, Isopropyl (S)-4-acetyl-6-((methoxycarbonyl)amino)-3-methyl-7-(4-(methylsulfonyl)phenyl)-3,4-dihydroquinoxaline-1 (2H)-carboxylate]	> 500	1000 to 10000	> 500	
COC(=O)Nc1ccc2c(c1)N(C(C)=O)[C@@H](C)CN2C(=O)OC(C)C [Example I-202, Isopropyl (S)-4-acetyl-6-((methoxycarbonyl)amino)-3-methyl-3,4-dihydro quinoxaline-1(2H)-carboxylate]	> 500	> 10000	> 500	
CC(=O)Nc1cc2c(cc1Br)N(C(=O)OC(C)C)C[C@H](C)N2C(C)=O [Example I-203, Isopropyl (S)-6-acetamido-4-acetyl-7-bromo-3-methyl-3,4-dihydro quinoxaline-1(2H)-carboxylate]	> 500	1000 to 10000	> 500	
COC(=O)Nc1cc2c(cc1-c1cnn(C3CC3)c1)N(C(=O)OC(C)C)C[C@H](C)N2C(C)=O [Example I-204, Isopropyl (S)-4-acetyl-7-(1-cyclopropyl-1H-pyrazol-4-yl)-6-((methoxycarbonyl)amino)-3-methyl-3,4-dihydroquinoxaline-1(2H)-carboxylate]	50 to 500	100 to 1000	> 500	
CC(=O)Nc1cc2c(cc1-c1cnn(CC(C)(C)O)c1)N(C(=O)OC(C)C)C[C@H](C)N2C(C)=O [Example I-205, Isopropyl (S)-6-acetamido-4-acetyl-7-(1-(2-hydroxy-2-methylpropyl)-1H-pyrazol-4-yl)-3-methyl-3,4-dihydroquinoxaline-1(2H)-carboxylate]	50 to 500	100 to 1000	> 500	
CC(=O)N1c2cc(N)c(-c3cnn(C4CC4)c3)cc2N(C(=O)OC(C)C)C[C@@H]1C [Example I-206, Isopropyl (S)-4-acetyl-6-amino-7-(1-cyclopropyl-1H-pyrazol-4-yl)-3-methyl-3,4-dihydroquinoxaline-1(2H)-carboxylate]	< 50	100 to 1000	100 to 500	
CC(=O)N1c2cc(Br)c(-c3cnn(C4CC4)c3)cc2N(C(=O)OC(C)C)C[C@@H]1C [Example I-209, Isopropyl (S)-4-acetyl-6-bromo-7-(1-cyclopropyl-1H-pyrazol-4-yl)-3-methyl-3,4-dihydroquinoxaline-1(2H)-carboxylate]	> 500	1000 to 10000	> 500	
COc1cc2c(cc1-c1cnn(C3CC3)c1)N(C(=O)OC(C)C)C[C@H](C)N2C(C)=O [Example I-210, Isopropyl (S)-4-acetyl-7-(1-cyclopropyl-1H-pyrazol-4-yl)-6-methoxy-3-methyl-3,4-dihydroquinoxaline-1(2H)-carboxylate]	> 500	1000 to 10000	> 500	
CC(=O)N1c2cc(C#N)c(-c3cnn(C4CC4)c3)cc2N(C(=O)OC(C)C)C[C@@H]1C [Example I-211, Isopropyl (S)-4-acetyl-6-cyano-7-(1-cyclopropyl-1H-pyrazol-4-yl)-3-methyl-3,4-dihydroquinoxaline-1(2H)-carboxylate]	> 500	100 to 1000	> 500	
CC(=O)N1c2cc(C(N)=O)c(-c3cnn(C4CC4)c3)cc2N(C(=O)OC(C)C)C[C@@H]1C [Example I-212, Isopropyl (S)-4-acetyl-6-carbamoyl-7-(1-cyclopropyl-1H-pyrazol-4-yl)-3-methyl-3,4-dihydroquinoxaline-1(2H)-carboxylate]	50 to 500	100 to 1000	100 to 500	
CC(=O)Nc1cc2c(cc1-c1cnn(C3CC3)c1)N(C(=O)OC(C)C)C[C@H](C)N2C(C)=O [Example I-214, Isopropyl (S)-6-acetamido-4-acetyl-7-(1-cyclopropyl-1H-pyrazol-4-yl)-3-methyl-3,4-dihydroquinoxaline-1(2H)-carboxylate]	50 to 500	100 to 1000	100 to 500	
CNC(=O)Nc1cc2c(cc1-c1cnn(C3CC3)c1)N(C(=O)OC(C)C)C[C@H](C)N2C(C)=O [Example I-215, Isopropyl (S)-4-acetyl-7-(1-cyclopropyl-1H-pyrazol-4-yl)-3-methyl-6-(3-methylureido)-3,4-dihydroquinoxaline-1(2H)-carboxylate]	50 to 500	100 to 1000	100 to 500	
CC(=O)N1c2cc(N)c(-c3ccc(S(C)(=O)=O)cc3)cc2N(C(=O)OC(C)C)C[C@@H]1C [Example I-216, Isopropyl (S)-4-acetyl-6-amino-3-methyl-7-(4-(methylsulfonyl)phenyl)-3,4-dihydroquinoxaline-1 (2H)-carboxylate]	> 500	1000 to 10000	> 500	
CC(=O)N1c2cc(Cl)c(-c3ccc(S(C)(=O)=O)cc3)cc2N(C(=O)OC(C)C)C[C@@H]1C [Example I-218, Isopropyl (S)-4-acetyl-6-chloro-3-methyl-7-(4-(methylsulfonyl)phenyl)-3,4-dihydroquinoxaline-1(2H)-carboxylate]	> 500	1000 to 10000	> 500	
